# Reference: ChEMBL document CHEMBL1129070, “(-)-Arctigenin as a lead structure for inhibitors of human immunodeficiency virus type-1 integrase” (J Med Chem, 1996)
# Target: Human immunodeficiency virus type 1 integrase (Human immunodeficiency virus 1) (UniProt Q7ZJM1)
# Assay: Inhibitory activity against strand transfer by HIV-1 Integrase at 100 uM
# Sequence of Human immunodeficiency virus type 1 integrase (Human immunodeficiency virus 1) (Q7ZJM1 as listed by the source): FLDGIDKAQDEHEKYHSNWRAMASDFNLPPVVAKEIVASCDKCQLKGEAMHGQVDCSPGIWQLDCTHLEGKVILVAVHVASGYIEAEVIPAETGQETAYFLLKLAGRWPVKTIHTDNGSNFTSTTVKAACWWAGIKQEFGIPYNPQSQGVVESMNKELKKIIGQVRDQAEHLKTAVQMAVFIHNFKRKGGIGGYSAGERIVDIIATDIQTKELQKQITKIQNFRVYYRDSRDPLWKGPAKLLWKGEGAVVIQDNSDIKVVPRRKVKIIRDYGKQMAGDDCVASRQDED
row,SMILES,inhibition
1,COc1cc(C[C@H]2C(=O)OC[C@@H]2Cc2ccc(O)c(O)c2)ccc1O,41%
2,O=C1OC[C@H](Cc2ccc3c(c2)OCO3)[C@H]1Cc1ccccc1,< 5%
3,COc1cc([C@@H]2c3cc4c(c(O)c3C[C@H]3COC(=O)[C@H]32)OCO4)cc(OC)c1OC,< 5%
4,COc1ccc(C[C@@H](CO)[C@@H](Cc2ccc(O)c(O)c2)C(=O)NCc2ccccc2)cc1OC,< 5%
5,COc1cc(C[C@@H](C(=O)NCc2ccccc2)[C@H](CO)Cc2ccc(OC)c(OC)c2)ccc1O,< 5%
6,COc1ccc(C[C@H]2COC(=O)[C@@H]2Cc2cccc(O)c2)cc1OC,< 5%
7,COc1cc(C[C@H]2C(=O)OC[C@@H]2Cc2ccc(OC)c(OC)c2)ccc1O,< 5%
8,COc1ccc(C[C@@H](CO)[C@H](CO)Cc2ccc(O)c(O)c2)cc1OC,< 5%
9,COc1ccc(C[C@H]2COC(=O)[C@@H]2Cc2ccc(O)cc2)cc1OC,< 5%
10,COc1cc(C[C@H]2C(=O)CC[C@@H]2Cc2ccc(OC)c(OC)c2)ccc1O,< 5%
11,COc1cc(C[C@@H](CO)[C@H](CO)Cc2ccc(OC)c(OC)c2)ccc1O,< 5%
12,O=C1OC[C@H](Cc2ccc(O)c(O)c2)[C@H]1Cc1ccc(O)c(O)c1,100%
13,COc1cc(C[C@H]2COC(=O)[C@@H]2Cc2ccc(O)c(OC)c2)ccc1O,< 5%
14,COc1cc([C@@H]2c3cc4c(c(O)c3C[C@H]3COC(=O)[C@H]32)OCO4)cc(OC)c1O,< 5%
15,COc1ccc(C[C@H]2COC(=O)[C@@H]2Cc2ccc(O)c(O)c2)cc1OC,52%
16,COc1ccc(C[C@H]2COC(=O)[C@@H]2Cc2cc(O)c(O)c(O)c2)cc1OC,< 5%
17,COc1ccc(C[C@H]2COC[C@@H]2Cc2ccc(O)c(O)c2)cc1OC,< 5%
18,COc1cc([C@@H]2c3cc4c(c(O)c3C[C@H]3COC(=O)[C@@H]32)OCO4)cc(OC)c1O,< 5%
19,COc1ccc(C[C@H]2CCC(=O)[C@@H]2Cc2ccc(O)c(O)c2)cc1OC,< 5%
20,COc1cc([C@@H]2c3cc4c(cc3[C@H](O)[C@H]3COC(=O)[C@@H]23)OCO4)cc(OC)c1O,< 5%
21,COc1cc([C@@H]2c3cc4c(cc3[C@H](O)[C@H]3COC(=O)[C@H]23)OCO4)cc(OC)c1O,< 5%
22,O=C1OC[C@H](Cc2ccc3c(c2)OCO3)[C@H]1Cc1cccc(O)c1,< 5%
23,COc1cc(C[C@H]2COC[C@@H]2Cc2ccc(OC)c(OC)c2)ccc1O,< 5%
24,COc1cc(C[C@H]2COC[C@@H]2Cc2ccc(O)c(OC)c2)ccc1O,< 5%
25,COc1cc([C@@H]2c3cc4c(cc3C(O)[C@H]3COC(=O)[C@H]23)OCO4)cc(O)c1O (stereo not given in full),< 5%
26,COc1cc(C[C@@H](CO)[C@H](CO)Cc2ccc(O)c(OC)c2)ccc1O,< 5%
27,COc1cc([C@@H]2c3cc4c(c(O)c3C[C@H]3COC(=O)[C@@H]32)OCO4)cc(OC)c1OC,< 5%
28,O=C1OC[C@H](Cc2ccc3c(c2)OCO3)[C@H]1Cc1ccc(O)cc1,< 5%
29,COc1ccc(C[C@H]2COC(=O)[C@@H]2Cc2ccccc2)cc1OC,< 5%

# Target: T1, Human immunodeficiency virus type 1 integrase (Human immunodeficiency virus 1, UniProt Q7ZJM1)
# Assay: Inhibitory concentration against 3'-processing by HIV -1 Integrase
# T1 sequence (Q7ZJM1 whole entry): as the sequence (Q7ZJM1 as listed by the source) above
row,SMILES,IC50
1,O=C1OC[C@H](Cc2ccc(O)c(O)c2)[C@H]1Cc1ccc(O)c(O)c1,21.4 µM

# Target: T1, Human immunodeficiency virus type 1 integrase
# Assay: Inhibitory concentration against Strand transfer by HIV -1 Integrase
row,SMILES,IC50
1,O=C1OC[C@H](Cc2ccc(O)c(O)c2)[C@H]1Cc1ccc(O)c(O)c1,5.4 µM

# Target: Human immunodeficiency virus type 1 integrase (Human immunodeficiency virus 1) (UniProt Q7ZJM1)
# Assay: Inhibitory activity against 3'-processing by HIV-1 Integrase at 100 uM
row,SMILES,inhibition
1,COc1cc(C[C@H]2C(=O)OC[C@@H]2Cc2ccc(O)c(O)c2)ccc1O,< 5%
2,O=C1OC[C@H](Cc2ccc3c(c2)OCO3)[C@H]1Cc1ccccc1,< 5%
3,COc1cc([C@@H]2c3cc4c(c(O)c3C[C@H]3COC(=O)[C@H]32)OCO4)cc(OC)c1OC,< 5%
4,COc1ccc(C[C@@H](CO)[C@@H](Cc2ccc(O)c(O)c2)C(=O)NCc2ccccc2)cc1OC,< 5%
5,COc1cc(C[C@@H](C(=O)NCc2ccccc2)[C@H](CO)Cc2ccc(OC)c(OC)c2)ccc1O,< 5%
6,COc1ccc(C[C@H]2COC(=O)[C@@H]2Cc2cccc(O)c2)cc1OC,< 5%
7,COc1cc(C[C@H]2C(=O)OC[C@@H]2Cc2ccc(OC)c(OC)c2)ccc1O,< 5%
8,COc1ccc(C[C@@H](CO)[C@H](CO)Cc2ccc(O)c(O)c2)cc1OC,< 5%
9,COc1ccc(C[C@H]2COC(=O)[C@@H]2Cc2ccc(O)cc2)cc1OC,< 5%
10,COc1cc(C[C@H]2C(=O)CC[C@@H]2Cc2ccc(OC)c(OC)c2)ccc1O,< 5%
11,COc1cc(C[C@@H](CO)[C@H](CO)Cc2ccc(OC)c(OC)c2)ccc1O,< 5%
12,O=C1OC[C@H](Cc2ccc(O)c(O)c2)[C@H]1Cc1ccc(O)c(O)c1,92%
13,COc1cc(C[C@H]2COC(=O)[C@@H]2Cc2ccc(O)c(OC)c2)ccc1O,< 5%
14,COc1cc([C@@H]2c3cc4c(c(O)c3C[C@H]3COC(=O)[C@H]32)OCO4)cc(OC)c1O,< 5%
15,COc1ccc(C[C@H]2COC(=O)[C@@H]2Cc2ccc(O)c(O)c2)cc1OC,37%
16,COc1ccc(C[C@H]2COC(=O)[C@@H]2Cc2cc(O)c(O)c(O)c2)cc1OC,< 5%
17,COc1ccc(C[C@H]2COC[C@@H]2Cc2ccc(O)c(O)c2)cc1OC,< 5%
18,COc1cc([C@@H]2c3cc4c(c(O)c3C[C@H]3COC(=O)[C@@H]32)OCO4)cc(OC)c1O,< 5%
19,COc1ccc(C[C@H]2CCC(=O)[C@@H]2Cc2ccc(O)c(O)c2)cc1OC,< 5%
20,COc1cc([C@@H]2c3cc4c(cc3[C@H](O)[C@H]3COC(=O)[C@@H]23)OCO4)cc(OC)c1O,< 5%
21,COc1cc([C@@H]2c3cc4c(cc3[C@H](O)[C@H]3COC(=O)[C@H]23)OCO4)cc(OC)c1O,< 5%
22,O=C1OC[C@H](Cc2ccc3c(c2)OCO3)[C@H]1Cc1cccc(O)c1,< 5%
23,COc1cc(C[C@H]2COC[C@@H]2Cc2ccc(OC)c(OC)c2)ccc1O,< 5%
24,COc1cc(C[C@H]2COC[C@@H]2Cc2ccc(O)c(OC)c2)ccc1O,< 5%
25,COc1cc([C@@H]2c3cc4c(cc3C(O)[C@H]3COC(=O)[C@H]23)OCO4)cc(O)c1O (stereo not given in full),< 5%
26,COc1cc(C[C@@H](CO)[C@H](CO)Cc2ccc(O)c(OC)c2)ccc1O,< 5%
27,COc1cc([C@@H]2c3cc4c(c(O)c3C[C@H]3COC(=O)[C@@H]32)OCO4)cc(OC)c1OC,< 5%
28,O=C1OC[C@H](Cc2ccc3c(c2)OCO3)[C@H]1Cc1ccc(O)cc1,< 5%
29,COc1ccc(C[C@H]2COC(=O)[C@@H]2Cc2ccccc2)cc1OC,< 5%
